Counter-ions that a name gives are not always drawn.
What was measured:
[1] = system: ears swelling of mice induced by xylene; test: Ears swelling of mice induced by xylene (anti-inflammatory effects); format: in vivo; settings: for Swelling degree: xylene 20 μL on right ear, 30 min, weight difference of 6 mm ear pieces
Experimental: 2.5 Effects on Ears Swelling of Mice Induced by Xylene (Anti-Inflammatory Effects)
40 mice were taken and randomly divided into 4 groups of 10 mice each as described in 2.1, in which intragastric administration was conducted at 10 mL/kg, the positive control group received dexamethasone acetate tablets at 5 mg/kg, and the negative control group received equal volume of 0.5% CMC-Na, once per day continuously for 7 days. At the night before the experiments, the mice were fasted but had access to water for 12 h. At the 7th day, 30 min after the administration, the mice were evenly smeared with the inflammatory agent xylene (20 μL for each mouse) at the front and back sides of right ears to cause inflammation, and killed by cervical dislocation after 30 min, with their both ears cut along the baseline of the auricle. The ear pieces of the same part of the both ears were punched out with a hole punch of 6 mm diameter, and weighted by an analytical balance. The difference between the weights of the two ears was the swelling degree (mg), and the swelling inhibition rate (%) was calculated. Swelling inhibition rate=(Average swelling degree of the control group−Average swelling degree of the administration group)/Average swelling degree of the control group 2.6 Statistical Methods:
(§1) Experimental data were analyzed using SPSS17.0 software, and expressed as means±standard deviations (x±SD). When the homogeneity of variance was complied, LSD test was used to make comparison between groups; and when the homogeneity of variance was not complied, Dunnett's T3 test was used to make comparison between groups. A P-value less than 0.05 means a statistical significance, and a P-value less than 0.01 means a significant statistical significance.

[2] = system: excretion of phenol red from the mouse trachea; test: Excretion amount of phenol red from the mouse trachea (expectorant effects); format: in vivo, mice; settings: trachea wash in 2 mL 5% NaHCO3, absorbance at 546 nm, n = 10
Experimental: 2.3 Effects on the Excretion Amount of Phenol Red from the Mouse Trachea (Expectorant Effects)
40 mice were taken and randomly divided into 4 groups as described in 2.1. The positive control group received ambroxol hydrochloride tablets at 20 mg/kg. After the mice were acclimatized for 3 days, they were administered intragastrically once a day continuously for 7 days. The administration volume was 20 mL/kg, and 30 min after the last administration, each mouse was intraperitoneally injected with 5% phenol red solution at 0.2 mL/20 g, sacrificed after 30 min, fixed supine, neck straightened, surrounding connective tissue stripped to expose the trachea, and dissected to separate out a section of trachea that was from below the thyroid cartilage to the bifurcation of the trachea. Each trachea section was put into a test tube pre-filled with 2 mL of 5% NaHCO3 solution, ultrasonically washed for 15 min to release the tracheal phenol red out from the trachea completely, and centrifuged at 1000 r/min for 15 min to obtain a supernatant. The absorbance values of the supernatant at 546 nm were measured by an enzyme reader, and converted into the phenol red content by being compared with standard curves of phenol red.
as §1

[3] = system: cough in guinea pigs induced by citric acid spray; test: Cough in guinea pigs induced by citric acid spray (antitussive effects); format: in vivo; settings: n = 10; for Number of coughs per 5 min: 17.5% citric acid spray; for Latency: cough latency, 17.5% citric acid spray 1 min, latency capped at 5 min
Experimental: 2.2 Effects on the Cough in Guinea Pigs Induced by Citric Acid Spray (Antitussive Effects)
Healthy and sensitive guinea pigs (a pre-selection was carried out one day before the experiments, to exclude the guinea pigs which coughed less than 10 times during the five-minute period), having body weight of 250-280 g, male and female each in half were taken, and randomly divided into groups as described in 2.1. After the guinea pigs were acclimatized for 3 days, they were administered intragastrically once a day continuously for 5 days, and at the fifth day 1 hour after the administration, the guinea pigs were placed inside a 3 L sealed glass bell jar where 17.5% citric acid was sprayed into at constant pressure for 1 minute by an ultrasonic nebulizer. The cough latency and the number of coughs of the guinea pigs during the 5-minute period were recorded though observation. For guinea pigs whose latency exceeded 5 min, it was recorded as 5 min.
as §1

[4] = system: cough response of mice induced by concentrated ammonia; test: Cough response of mice induced by concentrated ammonia (antitussive effects); format: in vivo; settings: n = 10; for Number of coughs per 2 min: 25% ammonia spray; for Latency: cough latency, 25% ammonia spray 15 s, 1 h after last dose
Experimental: 2.1 Effects on the Cough Response of Mice Induced by Concentrated Ammonia (Antitussive Effects)
40 mice were taken and randomly divided into four groups, namely a negative control group (0.5% of CMC-Na: prepared before tests by weighting 5 g of CMC-Na into a beaker, adding 800 mL pure water thereto, stirring, heating, boiling, and cooling down, then using a measuring cylinder to adjust the volume to 1000 mL, to obtain the transparent, viscous liquid with a concentration of 0.5% for the preparation of test samples and solvent control. Such liquid prepared once and can be used for 5-7 days); a positive control group of codeine phosphate tablets at 60 mg/kg; Trezastilbenoside high dose (300 mg/kg) group; and Trezastilbenoside low dose (150 mg/kg) group. For each administration group, 0.5% CMC-Na was used for dissolving and diluting to a corresponding concentration. After the mice were accilimatized for 3 days, they were administered intragastrically once a day continuously for 7 days. The administration volume was 20 mL/kg, and 1 h after the last administration, the mice were placed one by one into a closed and dry container where the mist of 25% of concentrated ammonia was introduced into by spraying at constant pressure for 15 seconds to induce cough, then the cough latency and the number of coughs in mice during the 2-minute period were recorded thought observation.
as §1

[5] = safety researches, background statement; cited from earlier work
[6] = system: allergic asthma in guinea pigs; test: Allergic asthma in guinea pigs (egg protein sensitisation and spray); format: in vivo; settings: 1% egg protein spray, capped at 6 min
Experimental: 2.4 Effects on the Allergic Asthma in Guinea Pigs (Effects for Relieving Asthma)
40 guinea pigs, male and female each in half, having body weight of 250-280 g, were randomly divided into 4 groups as described in 2.1. The positive control group received aminophylline tablets at 100 mg/kg. After the guinea pigs were acclimatized for 3 days, they received 10% fresh egg protein solution at 10 mL/kg through an intraperitoneal injection. From the 15th day, it began to administer intragastrically to each group at 10 mL/kg. The negative control group received equal volume of 0.5% CMC-Na once per day continuously for 7 days. From the 17th day, it began to let the guinea pigs inhale 1% egg protein solution, by spraying through an asthma-inducing, for 15 min to elicit at 1-day intervals totally for 3 times. After the last irritation, the asthma latency in the guinea pigs, that is, the time from the beginning of spray to asthma attacks (cough, dyspnea, restlessness, convulsions, falling down or death), was recorded. For the guinea pigs which had not appeared asthma attack after 6 min, their latency was taken as 6 min.
as §1

[7] = safety researches, background statement; cited from earlier work; remark: listed apart in the source
[8] = 60 mg/kg intragastric once a day for 5 days
[9] = 60 mg/kg intragastric once a day for 7 days
[10] = 150 mg/kg intragastric once a day for 5 days
[11] = 300 mg/kg intragastric once a day for 5 days
[12] = 150 mg/kg intragastric once a day for 7 days
[13] = 300 mg/kg intragastric once a day for 7 days
[14] = 150 mg/kg intragastric once per day for 7 days
[15] = 300 mg/kg intragastric once per day for 7 days

CC(=O)OCC(=O)[C@@]1(O)[C@H](C)C[C@H]2[C@@H]3CCC4=CC(=O)C=C[C@]4(C)[C@@]3(F)[C@@H](O)C[C@@]21C [Dexamethasone acetate tablet, Dexamethasone acetate, reference compound]
Swelling degree ([1]; 5 mg/kg intragastric once per day for 7 days): 1.24 ± 0.67 mg
inhibition at 5 mg/kg ([1]; Mus musculus, po, 168 h, 5 mg/kg intragastric once per day for 7 days, relative to average swelling degree of control group, read-out: Swelling inhibition rate (%)): 65.9%

Nc1c(Br)cc(Br)cc1CN[C@H]1CC[C@H](O)CC1 [Ambroxol hydrochloride tablet, Ambroxol hydrochloride, reference compound]
Phenol red concentration ([2]; ambroxol hydrochloride 20 mg/kg (positive control) intragastric once a day for 7 days): 4.23 ± 1.34 µg/mL

COc1ccc2c3c1O[C@H]1[C@@H](O)C=C[C@H]4[C@@H](C2)N(C)CC[C@@]341 [Codeine phosphate tablets, Codeine phosphate, reference compound]
Number of coughs per 5 min [3, 8]: 7.83 ± 3.83
Latency [3, 8]: 130.48 ± 59.34 s
Number of coughs per 2 min [4, 9]: 15.13 ± 7.83
Latency [4, 9]: 56.23 ± 16.46 s

OC[C@H]1O[C@@H](Oc2cc(/C=C/c3cc(O)cc(O)c3)ccc2O)[C@H](O)[C@@H](O)[C@@H]1O [Trezastilbenoside]
Number of coughs per 5 min [3, 10]: 13.88 ± 5.25
Number of coughs per 5 min [3, 11]: 9.63 ± 3.20
Latency [3, 10]: 104.35 ± 45.23 s
Latency [3, 11]: 116.78 ± 53.96 s
Chromosome aberrations or mutagenesis in the genetic test [5]: no chromosome aberrations or mutagenesis were found
Number of coughs per 2 min [4, 12]: 25.88 ± 9.25
Number of coughs per 2 min [4, 13]: 19.63 ± 10.27
Latency [4, 12]: 41.23 ± 13.67 s
Latency [4, 13]: 48.56 ± 16.53 s
Swelling degree [1, 14]: 3.12 ± 2.52 mg
Swelling degree [1, 15]: 2.21 ± 1.45 mg
inhibition at 150 mg/kg ([1]; Mus musculus, po, 168 h, 150 mg/kg intragastric once per day for 7 days, relative to average swelling degree of control group, read-out: Swelling inhibition rate (%)): 14.3%
inhibition at 300 mg/kg ([1]; Mus musculus, po, 168 h, 300 mg/kg intragastric once per day for 7 days, relative to average swelling degree of control group, read-out: Swelling inhibition rate (%)): 39.3%
Phenol red concentration [2, 12]: 3.28 ± 1.20 µg/mL
Phenol red concentration [2, 13]: 3.88 ± 1.43 µg/mL
Latency [6, 14]: 69.28 ± 21.20 s
Latency [6, 15]: 83.68 ± 36.13 s
Toxic side reactions and death in acute toxicity tests [7]: no toxic side reactions and death occurred

Cn1c(=O)c2[nH]cnc2n(C)c1=O [Aminophylline tablet, Aminophylline, reference compound]
Latency ([6]; 100 mg/kg intragastric once per day for 7 days): 94.23 ± 31.55 s
